Consider five compounds from ChEMBL document CHEMBL1135461, “Conformations and receptor activity of desmopressin analogues, which contain gamma-turn mimetics or a psi[CH(2)O] isostere” (2002).

The subject of the assay is Rattus norvegicus. The assay is described as follows: In vivo antidiuretic activity in female Sprague-Dawley rats by intravenous administration using Vasopressin house standard (561 IU/mg).

Each structure is given as a SMILES string.

`C[C@@H]1NC(=O)[C@H](Cc2ccccc2)NC(=O)[C@H](Cc2ccc(O)cc2)NC(=O)CCSSC[C@@H](C(=O)N2CCC[C@H]2C(=O)N[C@H](CCCN=C(N)N)C(=O)NCC(N)=O)NC(=O)[C@H](CC(N)=O)NC1=O`: the Agonist activity came to 645 IU mg-1.
`C[C@@H]1OC[C@H](Cc2ccccc2)NC(=O)[C@H](Cc2ccc(O)cc2)NC(=O)CCSSC[C@@H](C(=O)N2CCC[C@H]2C(=O)N[C@H](CCCN=C(N)N)C(=O)NCC(N)=O)NC(=O)[C@H](CC(N)=O)NC1=O` showed an Agonist activity of 0.56 IU mg-1.
As to `CC1OC2CN(C1=O)[C@@H](CC(N)=O)C(=O)N[C@H](C(=O)N1CCC[C@H]1C(=O)N[C@H](CCCN=C(N)N)C(=O)NCC(N)=O)CSSCCC(=O)N[C@@H](Cc1ccc(O)cc1)C(=O)N[C@H]2Cc1ccccc1` (stereo in doubt; 6), the Agonist activity was found to be 0.0026 IU mg-1.
The value for `N=C(N)NCCC[C@@H](NC(=O)[C@@H]1CCCN1C(=O)[C@@H]1CSSCCC(=O)N[C@@H](Cc2ccc(O)cc2)C(=O)N[C@@H](Cc2ccccc2)C(=O)N[C@@H](CCC(N)=O)C(=O)N[C@@H](CC(N)=O)C(=O)N1)C(=O)NCC(N)=O` [DESMOPRESSIN] was 1000 IU mg-1; that for `N=C(N)NCCC[C@H](NC(=O)[C@@H]1CCCN1C(=O)[C@@H]1CSSC[C@H](N)C(=O)N[C@@H](Cc2ccc(O)cc2)C(=O)N[C@@H](Cc2ccccc2)C(=O)N[C@@H](CCC(N)=O)C(=O)N[C@@H](CC(N)=O)C(=O)N1)C(=O)NCC(N)=O` [VASOPRESSIN] was 561 IU mg-1.
